≈ marks a conversion by molar mass, not a printed value. Entries after “also recorded” stand apart in the source; their conditions may differ. Like-named read-outs stand apart in the source and are kept apart here.
What was measured:
[1] = system: P. aeruginosa PA14; assay: Antibiotic susceptibility (MIC assay, broth microdilution); type: cell-based, Pseudomonas aeruginosa PA14
Experimental: Bacterial strains were streaked on LB-agar plates (1% agar) from glycerol stocks and incubated at 37° C. overnight. Colonies were picked from plate and dispersed in fresh MiGler-Hinton broth II (MHB II) to yield an OD600 of 0.08-0.13. This dispersion was diluted 1:100 in fresh MHB II, which was then used for the assay to achieve a final inoculum of 5×10^5 CFU/mL. 50 μL inoculum was mixed with 50 μL of the serial dilution in the corresponding well of the 96-well plate.
The different matrices were prepared under sterile conditions: (i) 5 mL human plasma and 1 mL sterile filtrate from an P. aeruginosa PA14 overnight culture in LB were mixed with 4 mL PBS; (ii) 1 mL sterile filtrate from an P. aeruginosa PA14 overnight culture was diluted in 9 mL PBS; (iii) PBS only and (iv) 5 mL human plasma and 1 mL LB were mixed with 4 mL PBS. 6 L of each compound dilution series was diluted in 115 L matrix (˜-1:20 dilution) in a 96-well format at time point T=−3 h or T=−10 min.
The plates prepared at T=−3 h were sealed with gas-permeable foil and incubated at 37° C. in a humid incubator. The other plates were kept at room temperature. At T=0 h, 50 µL of each well was mixed with 50 μL incoculum (as described above) in double-concentrated MHBII in a sterile 96-well plate.
The plates were sealed with gas-permeable foil and incubated at 37° C. for 18-20 h in a humid incubator. Growth inhibition was assessed by visual inspection and given MIC values are the lowest concentration of antibiotic at which there was no visible growth.

[2] = Cleavage / stability in PA14-filtrate without human blood plasma; type: in vitro ADME, Pseudomonas aeruginosa PA14; settings: up to 24 h
Experimental: (§1) P. aeruginosa PA14 was streaked on LB-agar plates (1% agar) from glycerol stocks and incubated at 37° C. overnight. 2-5 colonies were picked and dispersed in 10 mL LB (10 g/L trypton, 10 g/L NaCl, 5 g/L yeast extracts). This dispersion was incubated overnight at 37° C., 180 rpm under high humidity. The culture was centrifuged (4000 ref, room temperature, 10 min) and the supernatant was filtered (0.22 m pore size). […]
(§2) A 1 mM solution of the studied compound was prepared in PBS (150 mM NaCl, 2.6 mM KCl, 1.4 mM KH2PO4, 10 mM Na2HPO4, pH 7.4) with 20% DMSO. 50 μL of this solution was diluted in 950 μL matrix or human plasma (spiked with 10% LB) on ice. After brief vortex, 100 μL were immediately treated with 100 μL ice-cold MeCN (spiked with […] diphenhydramine as internal standard). The rest of the solution was incubated at 37° C. and 500 rpm in an eppendorf thermomixer. At various time points (30, 60, 120, 180 min), 100 L sample were taken and treated as described above. […] The AUC of the parent drug and its cleavage products and the internal standard was quantified using Compass QuantAnalysis quantification software. The relative AUC was calculated by AUC (compound)/AUC(ISTD). Procaine was used as a positive control as it readily degrades in human plasma.

[3] = target: T1, LecA (Pseudomonas aeruginosa, UniProt Q05097); assay: Competitive binding assay based on fluorescence polarization with LecA
T1 construct: made in house
T1 sequence (Q05097 whole entry): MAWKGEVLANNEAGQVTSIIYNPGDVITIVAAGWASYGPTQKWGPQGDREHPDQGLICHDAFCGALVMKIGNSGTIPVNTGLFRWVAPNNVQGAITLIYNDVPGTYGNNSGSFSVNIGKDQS
Experimental: LecA (according to Joachim et al.): A serial dilution of the test compounds was prepared in TBS/Ca (8.0 g/L NaCl, 2.4 g/L Tris, 0.19 g/L KCl, 0.15 g/L CaCl2·2 H2O), with 30% DMSO as co-solvent. […] The measured intensities were reduced by the values of only LecA in TBS/Ca and fluorescence polarization was calculated. The data was analysed with the MARS Data Analysis Software (BMG Labtech GmbH, Germany) and fitted according to the four-parameter variable slope model. Bottom and top plateaus were fixed according to the control compounds in each assay ((p-nitrophenyl)-p-D-galactoside) and the data was re-analysed with these values fixed. A minimum of three independent measurements on three plates was performed for each inhibitor.
Averages and standard deviations were calculated from at least three independent experiments.

[4] = Stability of conjugates in human blood plasma spiked with LB; type: in vitro ADME; settings: 50% human blood plasma spiked with 10% LB, within three hours
Experimental: as §2

[5] = Prodrug activation assay in human blood plasma spiked with P. aeruginosa PA14 culture supernatant; type: in vitro ADME, Pseudomonas aeruginosa PA14; settings: 50% human blood plasma spiked with 10% P. aeruginosa culture supernatant, within 3 h
Experimental: In the prodrug activation assay, the bacterial strain Pseudomonas aeruginosa PA14 wt (DSM 19882) was used. The strain was obtained from the German Collection of Microorganisms and Cell Cultures (DSMZ).
as §1, §2

[6] = target: LecB PAO1 (Pseudomonas aeruginosa, UniProt Q9HYN5); type: binding; settings: target LecB PAO1; for Ki: calculated as Ki from IC50, read-out: Ki ± s.d.
Sequence of LecB PAO1 (Q9HYN5 entry or part of it): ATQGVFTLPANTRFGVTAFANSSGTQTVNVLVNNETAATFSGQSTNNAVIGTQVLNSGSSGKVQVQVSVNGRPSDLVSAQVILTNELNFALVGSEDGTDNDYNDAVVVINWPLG
Experimental: LecB (LecB PAO1 according to Hauck et al. and LecB PA14 according to Sommer et al.): A serial dilution of the test compounds was prepared in TBS/Ca, with 20% DMSO as cosolvent. […] Fluorescence was measured and analysed as for LecA. Bottom and top plateaus were fixed according to the control compound in each assay (1-fucose) and the data was re-analysed with these values fixed. A minimum of three independent measurements on three plates was performed for each inhibitor.

[7] = target: LecB PA14 (Pseudomonas aeruginosa, UniProt A0A0H2ZE85); type: binding; settings: target LecB PA14
Sequence of LecB PA14 (A0A0H2ZE85 entry or part of it): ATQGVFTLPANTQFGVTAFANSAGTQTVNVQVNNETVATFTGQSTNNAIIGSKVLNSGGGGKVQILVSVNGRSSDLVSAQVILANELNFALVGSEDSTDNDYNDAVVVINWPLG
Experimental: LecB (LecB PAO1 according to Hauck et al. and LecB PA14 according to Sommer et al.): A serial dilution of the test compounds was prepared in TBS/Ca, with 20% DMSO as cosolvent. A concentrated solution of LecB PAO1 or PA14 was diluted in TBS/Ca together with the fluorescent reporter ligand (N-(fluorescein-5-yl)-N′-(α-l-fucopyranosyl ethylen)-thiocarbamide) to yield concentrations of 300 nM and 20 nM, respectively. 10 μL of this mix was added to 10 μL serial dilutions of the test compounds in a black 384-well microtiter plates (Greiner Bio-One, Germany, cat. no. 781900) in triplicates. After centrifugation (2680 ref, 1 min, room temperature), the reactions were incubated for 4-8 h at room temperature in a humidity chamber. Fluorescence was measured and analysed as for LecA. Bottom and top plateaus were fixed according to the control compound in each assay (1-fucose) and the data was re-analysed with these values fixed. A minimum of three independent measurements on three plates was performed for each inhibitor.

[8] = target: T1, LecA; assay: Isothermal titration calorimetry with LecA; type: binding
Experimental: Isothermal titration calorimetry was performed on an iTC200 (Malvern Panalytical) and the data were analyzed using Microcal Origin software (Malvern Panalytical). LecA in the cell was titrated with ligand in TBS/Ca^2+ buffer supplemented with 5% DMSO at 25° C. Steep titration slopes were the result of high amount of protein present and the high binding affinity of the ligand (high ‘value of c’).
Isothermal titration calorimetry was performed on an iTC200 (Malvern Panalytical) and the data were analyzed using Microcal Origin software (Malvern Panalytical).

[9] = Matrix 2: 50% human blood plasma + 10% P. aeruginosa culture supernatant in PBS, pre-incubation 3 h
[10] = Matrix 2: 50% human blood plasma + 10% P. aeruginosa culture supernatant in PBS, pre-incubation <10 min
[11] = Matrix 4: 50% human blood plasma + 10% LB in PBS, pre-incubation 3 h
[12] = Matrix 4: 50% human blood plasma + 10% LB in PBS, pre-incubation <10 min
[13] = Matrix 1: PBS, pre-incubation 3 h
[14] = Matrix 1: PBS, pre-incubation <10 min
[15] = Matrix 3: 10% P. aeruginosa culture supernatant in PBS, pre-incubation 3 h
[16] = Matrix 3: 10% P. aeruginosa culture supernatant in PBS, pre-incubation <10 min
[17] = target LecA, calculated as Ki from IC50, read-out: Ki ± s.d.
[18] = target LecA, read-out: IC50 ± s.d.

| SMILES | MIC [1, 9] [µM] | MIC [1, 10] [µM] | MIC [1, 11] [µM] | MIC [1, 12] [µM] | MIC [1, 13] [µM] | MIC [1, 14] [µM] | MIC [1, 15] [µM] | MIC [1, 16] [µM] | release of antibiotic cargo [4] | release of antibiotic cargo [5] | also measured |
| --- | --- | --- | --- | --- | --- | --- | --- | --- | --- | --- | --- |
| O=C(O)c1cn(C2CC2)c2cc(N3CCNCC3)c(F)cc2c1=O [Compound 1, Ciprofloxacin, reference compound] | 0.156 to 0.25 | 0.25 to 0.313 | 0.156 to 0.313 | 0.156 to 0.313 | – | – | – | – | – | – | – |
| NC[C@@H]1CCN(c2nc3c(cc2F)c(=O)c(C(=O)O)cn3C2CC2)C1 [Compound 3, (S)-7-(3-(aminomethyl)-1-pyrrolidinyl)-1-cyclopropyl-6-fluoro-1,4-dihydro-4-oxo-1,8-naphthyridine-3-carboxylic acid, reference compound] | – | – | – | – | – | – | – | – | – | – | MIC ([1]; Pseudomonas aeruginosa, PA14, read-out: MIC (parent drug)): 0.29 to 1.45 µM (≈ 0.1 to 0.502 µg/mL) |
| CC(C)C[C@H](N)C(=O)N[C@@H](C)C(=O)N1CCN(c2cc3c(cc2F)c(=O)c(C(=O)O)cn3C2CC2)CC1 [Compound 19, Leu-Ala-ciprofloxacin-conjugate] | – | – | – | – | – | – | – | – | – | – | release of free drug from dipeptide-conjugates [2]: very slow; also recorded: only slowly released their antibiotic cargo |
| CC(C)C[C@H](NC(=O)CNC(=O)[C@H](C)NC(=O)c1ccc(S[C@@H]2O[C@H](CO)[C@H](O)[C@H](O)[C@H]2O)cc1)C(=O)N[C@@H](C)C(=O)N1CCN(c2cc3c(cc2F)c(=O)c(C(=O)O)cn3C2CC2)CC1 [Compound 24] | ≥25 | – | ≥25 | ≥25 | >25 | >25 | ≥25 | ≥25 | no significant release of their antibiotic cargo | do not release ciprofloxacin; also recorded: degradation stopped at the stage of the secondary amide Ala-ciprofloxacin | Ki [3, 17]: 12.9 ± 1.12 µM; IC50 [3, 18]: 31.7 ± 2.46 µM |
| CC(C)C[C@H](NC(=O)CNC(=O)[C@H](C)NC(=O)c1ccc(S(=O)(=O)NC[C@H]2O[C@@H](C)[C@@H](O)[C@@H](O)[C@@H]2O)cc1)C(=O)N[C@@H](C)C(=O)N1CCN(c2cc3c(cc2F)c(=O)c(C(=O)O)cn3C2CC2)CC1 [Compound 25] | ≥25 | – | ≥25 | ≥25 | >25 | >25 | ≥25 | ≥25 | no significant release of their antibiotic cargo | do not release ciprofloxacin; also recorded: degradation stopped at the stage of the secondary amide Ala-ciprofloxacin | IC50 [6]: 4.63 ± 1.99 µM; IC50 ± s.d. [6]: one-digit micromolar range; Ki [6]: 1.92 ± 0.93 µM; IC50 [7]: 1 ± 0.32 µM; Ki ([7]; calculated as Ki from IC50, read-out: Ki ± s.d.): 0.36 ± 0.12 µM |
| CC(C)CC(NC(=O)CNC(=O)C(C)NC(=O)c1ccc(SC2OC(CO)C(O)C(O)C2O)cc1)C(=O)NC(C)C(=O)NCC1CCN(c2cc3c(cc2F)c(=O)c(C(=O)O)cn3C2CC2)C1 (stereo not shown) [Compound 48] | 1.56 | 3.13 to 12.5 | – | >25 | >25 | >25 | 1.56 to 3.13 | 1.56 to 3.13 | no significant release of their antibiotic cargo | release their antibiotic cargo; also recorded: released a significant amount of their antibiotic cargo; also recorded: efficiently released their antibiotic cargo | Ki [3, 17]: 11.2 ± 0.73 µM; IC50 [3, 18]: 28 ± 1.61 µM |
| CC(C)CC(NC(=O)CNC(=O)C(C)NC(=O)c1ccc(S(=O)(=O)NCC2OC(C)C(O)C(O)C2O)cc1)C(=O)NC(C)C(=O)NCC1CCN(c2cc3c(cc2F)c(=O)c(C(=O)O)cn3C2CC2)C1 (stereo not shown) [Compound 49] | 1.56 to 3.13 | 3.13 to 6.25 | – | ≥25 | >25 | >25 | 1.56 to 6.25 | 3.13 to 6.25 | no significant release of their antibiotic cargo | release their antibiotic cargo; also recorded: released a significant amount of their antibiotic cargo; also recorded: efficiently released their antibiotic cargo | MIC ([1]; Matrix 3, <10 min pre-incubation (text b309)): 3.13 µM (≈ 3.13 µg/mL); IC50 [6]: 4.29 ± 2.99 µM; IC50 ± s.d. [6]: one-digit micromolar range; Ki [6]: 1.75 ± 1.4 µM |
| CC(C)C[C@H](NC(=O)CNC(=O)[C@H](C)NC(=O)CCCCCn1cc(CCN(Cc2ccc(NC(=O)CCc3ccc(O[C@@H]4OC(CO)[C@H](O)C(O)C4O)cc3)cc2)Cc2ccc(NC(=O)CCc3ccc(O[C@@H]4OC(CO)[C@H](O)C(O)C4O)cc3)cc2)nn1)C(=O)N[C@@H](C)C(=O)N[C@H]1CCN(c2cc3c(cc2F)c(=O)c(C(=O)O)cn3C2CC2)C1 (stereo partly shown) [Compound 68] | – | – | – | – | – | – | – | – | – | – | Kd [8]: 0.036 ± 0.048 µM |
| O=[N+]([O-])c1ccc(S[C@@H]2O[C@H](CO)[C@H](O)[C@H](O)[C@H]2O)cc1 [pNP-β-D-Gal, p-nitrophenyl-β-thio-galactoside, reference compound] | – | – | – | – | – | – | – | – | – | – | IC50 [3]: 61.9 ± 0.6 µM; Ki [3]: 26.9 ± 0.25 µM |

— patent US20250295790A1, “LECTIN-TARGETING CONJUGATES” (Helmholtz-Zentrum für Infektionsforschung GmbH, priority 2021, published 2025)
